Measured values: patent US8785453B2, “Arylpiperazine-containing purine derivatives and uses thereof” (Green Cross Corporation, priority 2009, dated 2014)

Experiments:
[1] = target: T1, human recombinant serotonin 5-HT2A receptor (Homo sapiens, UniProt P28223); test: Binding affinity for serotonin 5-HT2A receptor ([3H]Ketanserin); settings: CHO-K1 cells, 1 nM [3H]Ketanserin; read-out: binding affinity (IC50) 5-HT2A
T1 construct: purchased PerkinElmer Life and Analytical Sciences, USA; host or cells: CHO-K1 cells
Method: (§1) Receptor binding affinities of the compounds for serotonin receptors were measured by the method described in the literature (see [Park W K et al., Pharmacol Biochem Behav., 82(2), 361-372 (2005)].
For serotonin 5-HT2A binding, an aliquot of human recombinant serotonin 5-HT2A receptor (PerkinElmer Life and Analytical Sciences, USA) expressed in CHO-K1 cells (5 μg/well) and 1 nM [^3H]Ketanserin (PerkinElmer) were used in the presence of mianserin (20 μM) as a nonspecific. The reaction mixture was incubated for 60 min […] 50 mM Tris-HCl (pH 7.4) buffer containing 4 mM CaCl2 and 0.1% ascorbic acid, and harvested through filtermate A glass fiber filter (Wallac, Finland) presoaked in 0.5% polyethyleneimine (PEI) by microbeta filtermate-96 harvester (PerkinElmer) to terminate the reaction, and then washed with ice cold 50 mM Tris-HCl buffer solution (pH 7.4). The filter was then covered with MeltiLex, sealed in a sample bag, dried in an oven. The radioactivity retained in the filter was finally counted using MicroBeta Plus (Wallac).
(§2) The binding affinity (IC50) of a compound for the receptor was calculated by computerized nonlinear regression analysis (GraphPad Prism Program, San Diego, USA) using 7-8 varied concentrations of the compound run in duplicate tubes.

[2] = target: T2, human recombinant 5-HT2C receptor (Homo sapiens, UniProt P28335); test: Binding affinity for serotonin 5-HT2C receptor ([3H]Mesulergine); settings: CHO-K1 membranes, 1.3 nM [3H]Mesulergine; read-out: binding affinity (IC50) 5-HT2C
T2 construct: purchased PerkinElmer
T2 sequence (P28335 33-458): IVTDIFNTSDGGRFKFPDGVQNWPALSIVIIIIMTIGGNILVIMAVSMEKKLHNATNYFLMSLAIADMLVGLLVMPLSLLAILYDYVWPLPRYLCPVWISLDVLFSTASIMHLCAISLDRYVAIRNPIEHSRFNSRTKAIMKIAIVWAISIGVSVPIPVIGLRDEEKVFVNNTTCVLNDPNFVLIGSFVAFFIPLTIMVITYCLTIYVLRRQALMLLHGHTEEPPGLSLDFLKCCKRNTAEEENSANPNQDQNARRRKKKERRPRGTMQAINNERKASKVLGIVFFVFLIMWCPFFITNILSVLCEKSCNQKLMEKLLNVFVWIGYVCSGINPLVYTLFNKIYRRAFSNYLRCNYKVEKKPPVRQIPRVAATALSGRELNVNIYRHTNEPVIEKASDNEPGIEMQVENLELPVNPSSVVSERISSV
Method: as §1, §2
For serotonin 5-HT2C binding, frozen membranes from stable CHO-K1 cell line expressing the human recombinant 5-HT2C receptor (PerkinElmer, 4 μg/well), [^3H]Mesulergine (Amersham, 1.3 nM) and test compounds were added into 50 mM Tris-HCl (pH 7.4) buffer containing 0.1% ascorbic acid and 4 mM CaCl2. Nonspecific binding was determined using 100 μM mianserin. The incubations were performed for 60 min at 27, and these were terminated by rapid filtration through filtermate A glass fiber filter presoaked in 0.5% PEI.

[3] = target: T3, human serotonin transporter (Homo sapiens, UniProt P31645); test: Binding affinity for serotonin transporter ([3H]Imipramine); settings: HEK-293 membrane, 2 nM [3H]Imipramine; read-out: binding affinity Serotonin Transporter
T3 construct: purchased PerkinElmer; host or cells: HEK-293 cells
Method: For serotonin transporter binding assays, a reaction mixture with a final volume of 0.25 ml was prepared by mixing a test compound, human serotonin transporter membrane expressed in HEK-293 cells (PerkinElmer, 5 μg/well), [^3H] Imipramine (PerkinElmer, 2 nM) and 50 mM Tris-HCl (pH 7.4) buffer containing 120 mM NaCl and 5 mM KCl. The reaction mixture was incubated for 30 min at 27, and harvested through filtermate A glass fiber filter presoaked in 0.5% PEI with ice cold 50 mM Tris-HCl buffer (pH 7.4) containing 0.9% NaCl.

mice = test: Anti-depressants activity in forced swimming test; type: in vivo; settings: 60 min before testing
Method: Each mouse was placed in a 25 cm glass cylinder (10 cm diameter) containing 15 cm of water maintained at 22±1, and was forced to swim for 10 min. 24 hours later, the mouse was replaced into the cylinder and the total duration of immobility was recorded during the last 5 min of the 6-min testing period. Mice are judged immobile when they float in an upright position and make only small movements to keep their head above water. Test drugs were suspended in 3% Tween 80 solution, and administered orally (po) 60 min before the testing.

T3 sequence (P31645 whole entry): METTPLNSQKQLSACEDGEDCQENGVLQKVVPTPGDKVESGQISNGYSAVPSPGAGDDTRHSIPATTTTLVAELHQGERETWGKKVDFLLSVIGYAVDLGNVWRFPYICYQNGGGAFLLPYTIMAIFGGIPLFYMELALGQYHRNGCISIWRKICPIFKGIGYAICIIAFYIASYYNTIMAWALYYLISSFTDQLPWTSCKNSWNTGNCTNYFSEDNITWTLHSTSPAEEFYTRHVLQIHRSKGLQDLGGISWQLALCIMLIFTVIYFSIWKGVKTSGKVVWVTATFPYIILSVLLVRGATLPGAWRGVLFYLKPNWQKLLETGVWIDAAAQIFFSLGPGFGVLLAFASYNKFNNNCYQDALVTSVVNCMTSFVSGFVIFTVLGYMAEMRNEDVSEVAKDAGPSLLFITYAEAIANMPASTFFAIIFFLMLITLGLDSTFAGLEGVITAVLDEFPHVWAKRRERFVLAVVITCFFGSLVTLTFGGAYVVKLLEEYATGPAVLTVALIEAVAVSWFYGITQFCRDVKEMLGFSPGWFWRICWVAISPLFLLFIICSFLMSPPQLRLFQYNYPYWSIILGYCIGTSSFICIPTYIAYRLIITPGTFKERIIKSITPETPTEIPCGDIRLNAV
T1 sequence (P28223 whole entry): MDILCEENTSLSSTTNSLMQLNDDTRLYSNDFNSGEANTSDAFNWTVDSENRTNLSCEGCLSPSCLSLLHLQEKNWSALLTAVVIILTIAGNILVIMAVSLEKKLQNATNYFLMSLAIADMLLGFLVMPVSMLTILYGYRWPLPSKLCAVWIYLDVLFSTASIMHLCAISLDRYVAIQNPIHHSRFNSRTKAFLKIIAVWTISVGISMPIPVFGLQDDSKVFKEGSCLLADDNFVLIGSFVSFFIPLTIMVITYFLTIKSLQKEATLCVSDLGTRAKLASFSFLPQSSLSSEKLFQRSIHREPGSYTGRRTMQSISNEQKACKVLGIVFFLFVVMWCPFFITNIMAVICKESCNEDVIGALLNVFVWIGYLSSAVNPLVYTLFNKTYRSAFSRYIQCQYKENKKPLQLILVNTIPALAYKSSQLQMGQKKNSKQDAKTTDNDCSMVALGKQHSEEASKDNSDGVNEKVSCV

Cc1cccc(N2CCN(CCCNc3ncnc4c3ncn4-c3ccc4c(c3)OCO4)CC2)c1C [Example 34, 9-(benzo[d][1,3]dioxol-5-yl)-N-(3-(4-(2,3-dimethylphenyl)piperazin-1-yl)propyl)-9H-purine-6-amine]
IC50 [1]: 54 nM | IC50 [2]: 230 nM | IC50 [3]: 6 nM | Immobility in forced swimming test (mice; 25 mg/kg po): 76.92 ± 10.04% | Immobility in forced swimming test (mice; 50 mg/kg po): 96.83 ± 11.02%

Cc1cccc(N2CCN(CC(O)CNc3ncnc4c3nc(C)n4-c3ccc4c(c3)OCO4)CC2)c1C (stereo not shown) [Example 35, 1-(9-(benzo[d][1,3]dioxol-5-yl)-8-methyl-9H-purin-6-ylamino)-3-(4-(2,3-dimethylphenyl)piperazin-1-yl)propan-2-ol]
IC50 [1]: 106 nM | IC50 [2]: 789 nM | IC50 [3]: 27 nM | Immobility in forced swimming test (mice; 25 mg/kg po): 87.36 ± 6.89%

Cc1cccc(N2CCN(CCCNc3ncnc4c3nc(C)n4-c3ccc4c(c3)OCO4)CC2)c1C [Example 36, 9-(benzo[d][1,3]dioxol-5-yl)-N-(3-(4-(2,3-dimethylphenyl)piperazin-1-yl)propyl)-8-methyl-9H-purine-6-amine]
IC50 [1]: 29 nM | IC50 [2]: 285 nM | IC50 [3]: 4 nM | Immobility in forced swimming test (mice; 25 mg/kg po): 79.93 ± 13.23% | Immobility in forced swimming test (mice; 50 mg/kg po): 86.77 ± 11.28%

Cc1cccc(N2CCN(CC(O)CNc3ncnc4c3nc(C(C)(C)C)n4C)CC2)c1C (stereo not shown) [Example 38, 1-(8-tert-butyl-9-methyl-9H-purin-6-ylamino)-3-(4-(2,3-dimethylphenyl)piperazin-1-yl)propan-2-ol]
IC50 [1]: 404 nM | IC50 [2]: 1590 nM | IC50 [3]: 19 nM | Immobility in forced swimming test (mice; 25 mg/kg po): 74.86 ± 9.75% | Immobility in forced swimming test (mice; 50 mg/kg po): 64.14 ± 10.74%

CCc1nc2c(NCCCN3CCN(c4cccc(C)c4C)CC3)ncnc2n1-c1ccc2c(c1)OCO2 [Example 39, 9-(benzo[d][1,3]dioxol-5-yl)-N-(3-(4-(2,3-dimethylphenyl)piperazin-1-yl)propyl)-8-ethyl-9H-purine-6-amine]
IC50 [1]: 33 nM | IC50 [2]: 328 nM | IC50 [3]: 21 nM | Immobility in forced swimming test (mice; 25 mg/kg po): 88.94 ± 5.41%

CCc1nc2c(NCC(O)CN3CCN(c4cccc(C)c4C)CC3)ncnc2n1-c1ccc2c(c1)OCO2 (stereo not shown) [Example 40, 1-(9-(benzo[d][1,3]dioxol-5-yl)-8-ethyl-9H-purin-6-ylamino)-3-(4-(2,3-dimethylphenyl)piperazin-1-yl)propan-2-ol]
IC50 [1]: 125 nM | IC50 [2]: 713 nM | IC50 [3]: 18 nM | Immobility in forced swimming test (mice; 25 mg/kg po): 98.20 ± 10.00%

Cc1cccc(N2CCN(CCCNc3ncnc4c3ncn4-c3ccc4c(c3)OCCO4)CC2)c1C [Example 41, 9-(2,3-dihydrobenzo[b][1,4]dioxin-6-yl)-N-(3-(4-(2,3-dimethylphenyl)piperazin-1-yl)propyl)-9H-purine-6-amine]
IC50 [1]: 16 nM | IC50 [2]: 224 nM | IC50 [3]: 7 nM | Immobility in forced swimming test (mice; 25 mg/kg po): 105.95 ± 4.92%

Cc1cccc(N2CCN(CC(O)CNc3ncnc4c3ncn4-c3ccc4c(c3)OCCO4)CC2)c1C (stereo not shown) [Example 42, 1-(9-(2,3-dihydrobenzo[b][1,4]dioxin-6-yl)-9H-purin-6-ylamino)-3-(4-(2,3-dimethylphenyl)piperazin-1-yl)propan-2-ol]
IC50 [1]: 40 nM | IC50 [2]: 560 nM | IC50 [3]: 8 nM | Immobility in forced swimming test (mice; 25 mg/kg po): 86.65 ± 6.40%

Cc1cccc(N2CCN(CCCNc3ncnc4c3nc(C)n4-c3ccc4c(c3)OCCO4)CC2)c1C [Example 43, 9-(2,3-dihydrobenzo[b][1,4]dioxin-6-yl)-N-(3-(4-(2,3-dimethylphenyl)piperazin-1-yl)propyl)-8-methyl-9H-purine-6-amine]
IC50 [1]: 14 nM | IC50 [2]: 118 nM | IC50 [3]: 16 nM | Immobility in forced swimming test (mice; 25 mg/kg po): 81.26 ± 11.85%

Cc1cccc(N2CCN(CC(O)CNc3ncnc4c3nc(C)n4-c3ccc4c(c3)OCCO4)CC2)c1C (stereo not shown) [Example 44, 1-(9-(2,3-dihydrobenzo[b][1,4]dioxin-6-yl)-8-methyl-9H-purin-6-ylamino)-3-(4-(2,3-dimethylphenyl)piperazin-1-yl)propan-2-ol]
IC50 [1]: 54 nM | IC50 [2]: 510 nM | IC50 [3]: 65 nM | Immobility in forced swimming test (mice; 25 mg/kg po): 80.41 ± 7.04%

CCc1nc2c(NCCCN3CCN(c4cccc(C)c4C)CC3)ncnc2n1-c1ccc2c(c1)OCCO2 [Example 45, 9-(2,3-dihydrobenzo[b][1,4]dioxin-6-yl)-N-(3-(4-(2,3-dimethylphenyl)piperazin-1-yl)propyl)-8-ethyl-9H-purine-6-amine]
IC50 [1]: 14 nM | IC50 [2]: 151 nM | IC50 [3]: 49 nM | Immobility in forced swimming test (mice; 25 mg/kg po): 97.64 ± 7.25%

Cc1cccc(N2CCN(CCCNc3ncnc4c3nc(C)n4-c3ccc(F)cc3)CC2)c1C [Example 49, N-(3-(4-(2,3-dimethylphenyl)piperazin-1-yl)propyl)-9-(4-fluorophenyl)-8-methyl-9H-purine-6-amine]
IC50 [1]: 47 nM | IC50 [2]: 364 nM | IC50 [3]: 62 nM | Immobility in forced swimming test (mice; 25 mg/kg po): 81.07 ± 7.11%

CCc1nc2c(NCCCN3CCN(c4cccc(C)c4C)CC3)ncnc2n1-c1ccc(F)cc1 [Example 51, N-(3-(4-(2,3-dimethylphenyl)piperazin-1-yl)propyl)-8-ethyl-9-(4-fluorophenyl)-9H-purine-6-amine]
IC50 [1]: 66 nM | IC50 [2]: 423 nM | IC50 [3]: 19 nM | Immobility in forced swimming test (mice; 25 mg/kg po): 99.44 ± 10.28%

Cc1cccc(N2CCN(CCNc3ncnc4c3nc(C)n4-c3ccc(F)cc3)CC2)c1C [Example 55, N-(2-(4-(2,3-dimethylphenyl)piperazin-1-yl)ethyl)-9-(4-fluorophenyl)-8-methyl-9H-purine-6-amine]
IC50 [1]: 31.1 nM | IC50 [2]: 129 nM | IC50 [3]: 518 nM | Immobility in forced swimming test (mice; 25 mg/kg po): 70.53 ± 11.73% | Immobility in forced swimming test (mice; 50 mg/kg po): 78.41 ± 8.11%

CCc1nc2c(NCCN3CCN(c4cccc(C)c4C)CC3)ncnc2n1-c1ccc(F)cc1 [Example 56, N-(2-(4-(2,3-dimethylphenyl)piperazin-1-yl)ethyl)-8-ethyl-9-(4-fluorophenyl)-9H-purine-6-amine]
IC50 [1]: 7.5 nM | IC50 [2]: 76.5 nM | IC50 [3]: 146 nM | Immobility in forced swimming test (mice; 25 mg/kg po): 71.41 ± 10.84% | Immobility in forced swimming test (mice; 50 mg/kg po): 77.46 ± 12.27%

Cc1cccc(N2CCN(CCCNc3ncnc4c3nc(C)n4-c3ccc(Cl)cc3)CC2)c1C [Example 70, 9-(4-chlorophenyl)-N-(3-(4-(2,3-dimethylphenyl)piperazin-1-yl)propyl)-8-methyl-9H-purine-6-amine]
IC50 [1]: 54.3 nM | IC50 [2]: 316 nM | IC50 [3]: 43.8 nM | Immobility in forced swimming test (mice; 25 mg/kg po): 80.67 ± 12.19% | Immobility in forced swimming test (mice; 50 mg/kg po): 53.34 ± 10.82%

Cc1cccc(N2CCN(CCCNc3ncnc4c3nc(C)n4-c3ccc(C(F)(F)F)cc3)CC2)c1C [Example 76, N-(3-(4-(2,3-dimethylphenyl)piperazin-1-yl)propyl)-8-methyl-9-(4-(trifluoromethyl)phenyl)-9H-purine-6-amine]
IC50 [1]: 43.1 nM | IC50 [2]: 453 nM | IC50 [3]: 128 nM | Immobility in forced swimming test (mice; 25 mg/kg po): 79.98 ± 7.42% | Immobility in forced swimming test (mice; 50 mg/kg po): 90.13 ± 4.29%

Cc1cccc(N2CCN(CCCNc3ncnc4c3nc(-c3ccccc3)n4-c3ccc4c(c3)OCO4)CC2)c1C [Example 83, 9-(benzo[d][1,3]dioxol-5-yl)-N-(3-(4-(2,3-dimethylphenyl)piperazin-1-yl)propyl)-8-phenyl-9H-purine-6-amine]
IC50 [1]: 30 nM | IC50 [2]: 198 nM | IC50 [3]: 42 nM | Immobility in forced swimming test (mice; 25 mg/kg po): 70.43 ± 6.15%
